Patent publication US20230242948A1, “OLEIC ACID PRODUCED FROM MICROORGANISM AND METHOD FOR PRODUCING OLEIC ACID USING MICROORGANISM” (KOREA INSTITUTE OF SCIENCE AND TECHNOLOGY, priority 2022, published 2023)

Tests used:
Assay type in all cases: cell-based
[1] = tested on: recombinant Yarrowia lipolytica; test: Culture of recombinant lipid-producing microorganism (peroxisomal biogenesis factor 10 deleted, diacylglycerol acyltransferase overexpressed) in glucose minimal medium with or without hexanoic acid (Test Example 1)
Experimental: (§1) As an exemplary embodiment of the present disclosure, after deleting peroxisomal biogenesis factor 10 (SEQ ID NO 1), which is a lipid degradation-related gene, from the wild-type Yarrowia lipolytica (microorganism accession number ATCC MYA-2613) of Example 1 using the CRISPR/Cas9 system, a lipid-producing microorganism was prepared by overexpressing diacylglycerol acyltransferase, which is a key gene in a lipid-producing metabolic pathway, using a vector (pMCS-12TEF-DGA1-CYC1t, SEQ ID NO 3) comprising a UAS1B enhancer, a TEF (translational elongation factor) promoter and a gene encoding diacylglycerol acyltransferase (SEQ ID NO 2). Then, after inoculating the microorganism to a minimal medium containing glucose as a carbon source (20 g/L glucose, 6.7 g/L yeast nitrogen base, CSM-ura (MP Biomedicals, Solon, USA), pH 6.8 potassium phosphate buffer) and supplemented with 1 g/L hexanoic acid, shaking culture was conducted at 28° C. and 200 rpm. After culturing for 144-168 hours, the microorganism was separated from the culture through centrifugation.
as §1, with “After” for “As an exemplary embodiment of the present disclosure, after”, “buffer),” for “buffer) and supplemented with 1 g/L hexanoic acid,”
(§2) In order to investigate the consumption of the carbon source in the medium and the content of the produced lipids depending on the addition of hexanoic acid during the culturing of the lipid-producing microorganisms, the amount of biomass (dry cell weight) and lipids produced from the microorganisms isolated in Examples 1-2 and Comparative Examples 1-2 was measured. The amount of produced oleic acid was calculated through lipid assay and the amount of consumed glucose was measured form the separated cultures.

[2] = tested on: wild-type Yarrowia lipolytica (ATCC MYA-2613); test: Culture of wild-type lipid-producing microorganism in glucose minimal medium with or without hexanoic acid (Test Example 1); details: 1 g/L hexanoic acid
Experimental: (§3) As an exemplary embodiment of the present disclosure, wild-type Yarrowia lipolytica (microorganism accession number ATCC MYA-2613) was inoculated to a minimal medium containing glucose as a carbon source (20 g/L glucose, 6.7 g/L yeast nitrogen base, CSM-ura (MP Biomedicals, Solon, USA), pH 6.8 potassium phosphate buffer) and supplemented with 1 g/L hexanoic acid. Then shaking culture was conducted at 28° C. and 200 rpm. After culturing for 144-168 hours, the microorganism was separated from the culture through centrifugation.
as §3, with “After inoculating” for “As an exemplary embodiment of the present disclosure,”, “MYA-2613)” for “MYA-2613) was inoculated”, “buffer),” for “buffer) and supplemented with 1 g/L hexanoic acid. Then”
as §2

[3] = tested on: transformed Yarrowia lipolytica; test: Oleic acid production depending on concentration of added hexanoic acid, glucose and xylose medium (Test Example 2); details: for oleic acid concentration increased by / oleic acid content increased by / oleic acid concentration: 168 hours; for oleic acid concentration increased by / oleic acid content increased by: vs Comparative Example 3; for oleic acid concentration: 0.377 g/L without hexanoic acid
Experimental: Specifically, wild-type Yarrowia lipolytica was transformed in the same manner as in Example 2 and hexanoic acid at 0 g/L (Comparative Example 3), 0.2 g/L (Example 3), 0.6 g/L (Example 4) or 1 g/L (Example 5) was added to a minimal medium containing 20 g/L glucose and 10 g/L xylose as carbon sources (20 g/L glucose, 10 g/L xylose, 6.7 g/L yeast nitrogen base, CSM-ura (MP Biomedicals, Solon, USA), pH 6.8 potassium phosphate buffer). Then, after inoculating the transformed microorganism to the medium, shaking culture was conducted at 28° C. and 200 rpm. After culturing for 168 hours, the microorganism was separated from the culture through centrifugation and the amount of produced lipids was measured from the separated strain. The amount of produced oleic acid was calculated through lipid assay and the amount of glucose and xylose consumed as carbon sources was measured from the separated culture.

[4] = Example 3, 0.2 g/L hexanoic acid
[5] = Example 4, 0.6 g/L hexanoic acid

Question: With CCCCCC(=O)O [hexanoic acid] as the compound, how does the “increase of lipid production as compared to Comparative Example 2” value ([1]; 1 g/L hexanoic acid, 144-168 hours, FIG. 2) read?
Answer: The value was “about 10%”.

Question: And the “consumption rate of the carbon source glucose” value ([1]; Example 2, 1 g/L hexanoic acid, 20 g/L glucose, 28° C., FIG. 1)?
Answer: Its value is “increased”.

Question: And the intracellular lipid content ([1]; Example 2, 1 g/L hexanoic acid, 50.3% without hexanoic acid (Comparative Example 2))?
Answer: Its intracellular lipid content is 73.8%.

Question: And the “content of oleic acid in the produced lipids” value ([1]; Example 2, 1 g/L hexanoic acid, FIG. 3)?
Answer: The value was roughly 61%.

Question: And the “relative oleic acid production as compared to Comparative Example 1 (wild-type strain, medium not comprising hexanoic acid)” value ([1]; Example 2, recombinant strain plus 1 g/L hexanoic acid, FIG. 4)?
Answer: Its value is “about 3.3 times”.

Question: What about the “lipid production (in words)” value [2] of the same compound?
Answer: Its value is “not increased significantly”.

Question: What about the “consumption rate of the carbon source glucose” value ([2]; 20 g/L glucose, 28° C., FIG. 1) of the same compound?
Answer: The value was “increased”.

Question: And the “increase of lipid production as compared to Comparative Example 1” value ([2]; 144-168 hours, FIG. 2)?
Answer: The value was “about 10%”.

Question: And the “content of oleic acid in the produced lipids” value ([2]; FIG. 3)?
Answer: The value was 66%.

Question: And the “oleic acid concentration increased by” value [3, 4]?
Answer: Its value is 10.5%.

Question: And the “oleic acid content increased by” value [3, 4]?
Answer: Its value is 27.4%.

Question: What about the oleic acid concentration [3, 4] of the same compound?
Answer: The oleic acid concentration was 0.417 g/L.

Question: And the “oleic acid concentration increased by” value [3, 5]?
Answer: Its value is 40.3%.

Question: What about the “oleic acid content increased by” value [3, 5] of the same compound?
Answer: Its value is 40.1%.

Question: And the oleic acid concentration [3, 5]?
Answer: Its oleic acid concentration is 0.529 g/L.

Question: And the “oleic acid concentration increased by” value ([3]; Example 5, 1 g/L hexanoic acid)?
Answer: The value was 61.2%.

Question: What about the “oleic acid content increased by” value ([3]; Example 5, 1 g/L hexanoic acid) of the same compound?
Answer: Its value is 52.1%.

Question: What about the oleic acid concentration ([3]; Example 5, 1 g/L hexanoic acid) of the same compound?
Answer: The oleic acid concentration was 0.608 g/L.

Question: What about the consumption of xylose ([3]; hexanoic acid added to medium with 20 g/L glucose and 10 g/L xylose, FIG. 8) of the same compound?
Answer: The consumption of xylose was “increased remarkably”.
